Laboratory results taken from US9247759B2, “Identification of human T2R receptors that respond to bitter compounds that elicit the bitter taste in compositions, and the use thereof in assays to identify compounds that inhibit (block) bitter taste in compositions and use thereof” (SENOMYX, INC., priority 2007, dated 2016).

Assays:
[1] = tested on: hT2R67; assay: hT2R panel inhibition, transient HEK293 G16g44, agonist Andrographolide 5 μM; type: cell-based, human; settings: compound at 25 μM; receptor activated to EC80 with the corresponding agonist
How it was run: (§1)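 Here, inhibition reflects how much the test compound lowers activation of a transiently expressed human bitter receptor stimulated at EC80. Twenty-two such receptors were tested separately.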

[2] = biological target: hT2R10 (Homo sapiens (Human), UniProt Q9NYW0); assay: hT2R panel inhibition, transient HEK293 G16g44, agonist Strychnine 50 μM; type: cell-based; settings: HEK293, read-out: screening result against bitter receptor 10, compound at 25 μM; receptor activated to EC80 with the corresponding agonist
hT2R10, sequence (Q9NYW0 whole entry): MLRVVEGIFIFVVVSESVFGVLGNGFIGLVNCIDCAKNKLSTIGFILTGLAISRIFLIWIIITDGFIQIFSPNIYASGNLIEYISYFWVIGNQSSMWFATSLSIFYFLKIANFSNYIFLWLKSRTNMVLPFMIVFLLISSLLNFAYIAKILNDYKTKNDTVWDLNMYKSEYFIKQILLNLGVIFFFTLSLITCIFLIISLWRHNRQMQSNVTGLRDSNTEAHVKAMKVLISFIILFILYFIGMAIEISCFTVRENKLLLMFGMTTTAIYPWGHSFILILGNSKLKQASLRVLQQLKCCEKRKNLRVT

[3] = biological target: hT2R75 (Homo sapiens (Human), UniProt P59540); assay: hT2R panel inhibition, transient HEK293 G16g44, agonist Strychnine 1 μM; type: cell-based; settings: HEK293, read-out: screening result against bitter receptor 75, compound at 25 μM; receptor activated to EC80 with the corresponding agonist
hT2R75, sequence (P59540 whole entry): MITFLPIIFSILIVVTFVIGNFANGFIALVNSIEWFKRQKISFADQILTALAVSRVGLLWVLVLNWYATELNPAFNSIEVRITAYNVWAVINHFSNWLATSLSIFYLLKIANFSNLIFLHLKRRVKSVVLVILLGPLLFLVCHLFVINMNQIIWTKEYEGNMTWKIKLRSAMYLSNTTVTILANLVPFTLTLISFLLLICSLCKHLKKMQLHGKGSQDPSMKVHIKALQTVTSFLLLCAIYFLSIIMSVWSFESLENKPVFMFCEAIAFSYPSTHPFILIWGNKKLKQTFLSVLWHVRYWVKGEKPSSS

[4] = tested on: hT2R55; assay: hT2R panel inhibition, transient HEK293 G16g44, agonist Cinchonine 150 μM; type: cell-based, human; settings: compound at 25 μM; receptor activated to EC80 with the corresponding agonist
How it was run: as §1

[5] = biological target: hT2R51 (Homo sapiens (Human), UniProt P59533); assay: hT2R panel inhibition, transient HEK293 G16g44, agonist Prop 2.5 μM; type: cell-based; settings: HEK293, compound at 25 μM; receptor activated to EC80 with the corresponding agonist; read-out: screening result against bitter receptor 51
hT2R51, sequence (P59533 whole entry): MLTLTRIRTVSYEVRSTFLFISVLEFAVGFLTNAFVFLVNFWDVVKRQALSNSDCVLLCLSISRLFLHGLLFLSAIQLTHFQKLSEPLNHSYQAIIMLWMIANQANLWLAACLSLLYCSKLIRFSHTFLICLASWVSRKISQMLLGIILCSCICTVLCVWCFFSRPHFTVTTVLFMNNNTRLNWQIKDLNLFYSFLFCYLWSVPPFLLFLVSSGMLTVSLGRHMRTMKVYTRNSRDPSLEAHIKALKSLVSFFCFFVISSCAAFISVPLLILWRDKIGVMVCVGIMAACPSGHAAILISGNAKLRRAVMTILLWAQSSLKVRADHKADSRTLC
How it was run: as §1

[6] = biological target: hT2R61 (Homo sapiens (Human), UniProt P59537); assay: hT2R panel inhibition, transient HEK293 G16g44, agonist Aristolochic Acid 25 nM; type: cell-based; settings: HEK293, compound at 25 μM; receptor activated to EC80 with the corresponding agonist; read-out: screening result against bitter receptor 61
hT2R61, sequence (P59537 whole entry): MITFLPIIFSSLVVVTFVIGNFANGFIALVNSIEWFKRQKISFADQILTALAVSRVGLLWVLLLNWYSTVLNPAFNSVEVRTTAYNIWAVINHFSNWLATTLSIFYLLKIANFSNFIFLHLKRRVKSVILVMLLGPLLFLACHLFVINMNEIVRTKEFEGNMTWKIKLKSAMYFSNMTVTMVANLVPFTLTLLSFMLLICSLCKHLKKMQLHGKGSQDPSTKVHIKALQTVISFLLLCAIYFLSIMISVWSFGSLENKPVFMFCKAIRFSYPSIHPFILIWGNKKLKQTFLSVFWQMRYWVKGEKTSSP
How it was run: as §1

[7] = biological target: hT2R3 (Homo sapiens (Human), UniProt Q9NYW6); assay: hT2R panel inhibition, transient HEK293 G16g44, agonist Chloroquine pH6.5 50 μM; type: cell-based; settings: HEK293, compound at 25 μM; receptor activated to EC80 with the corresponding agonist; read-out: screening result against bitter receptor 3
hT2R3, sequence (Q9NYW6 whole entry): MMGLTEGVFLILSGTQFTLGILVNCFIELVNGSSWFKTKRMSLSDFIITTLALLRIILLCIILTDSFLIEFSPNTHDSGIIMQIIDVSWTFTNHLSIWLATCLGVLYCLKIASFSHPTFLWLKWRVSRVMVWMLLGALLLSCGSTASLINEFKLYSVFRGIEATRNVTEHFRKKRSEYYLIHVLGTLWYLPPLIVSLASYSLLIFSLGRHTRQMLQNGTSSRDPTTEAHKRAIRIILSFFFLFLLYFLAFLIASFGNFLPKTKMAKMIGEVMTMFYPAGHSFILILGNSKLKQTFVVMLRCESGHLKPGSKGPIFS
How it was run: as §1

[8] = biological target: hT2R16 (Homo sapiens (Human), UniProt Q9NYV7); assay: hT2R panel inhibition, transient HEK293 G16g44, agonist Salicin 1 mM; type: cell-based; settings: HEK293, compound at 25 μM; receptor activated to EC80 with the corresponding agonist; read-out: screening result against bitter receptor 16
hT2R16, sequence (Q9NYV7 whole entry): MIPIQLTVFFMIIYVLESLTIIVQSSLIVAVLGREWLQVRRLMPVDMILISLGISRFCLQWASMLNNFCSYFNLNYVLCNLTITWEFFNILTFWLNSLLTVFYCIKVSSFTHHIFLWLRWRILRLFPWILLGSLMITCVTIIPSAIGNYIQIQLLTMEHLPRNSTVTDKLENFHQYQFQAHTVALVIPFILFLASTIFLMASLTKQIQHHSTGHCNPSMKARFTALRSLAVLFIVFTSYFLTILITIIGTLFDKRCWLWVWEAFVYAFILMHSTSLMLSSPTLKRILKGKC
How it was run: as §1

[9] = biological target: hT2R64 (Homo sapiens (Human), UniProt P59538); assay: hT2R panel inhibition, transient HEK293 G16g44, agonist Aristolochic Acid 1 μM; type: cell-based; settings: HEK293, compound at 25 μM; receptor activated to EC80 with the corresponding agonist; read-out: screening result against bitter receptor 64
hT2R64, sequence (P59538 whole entry): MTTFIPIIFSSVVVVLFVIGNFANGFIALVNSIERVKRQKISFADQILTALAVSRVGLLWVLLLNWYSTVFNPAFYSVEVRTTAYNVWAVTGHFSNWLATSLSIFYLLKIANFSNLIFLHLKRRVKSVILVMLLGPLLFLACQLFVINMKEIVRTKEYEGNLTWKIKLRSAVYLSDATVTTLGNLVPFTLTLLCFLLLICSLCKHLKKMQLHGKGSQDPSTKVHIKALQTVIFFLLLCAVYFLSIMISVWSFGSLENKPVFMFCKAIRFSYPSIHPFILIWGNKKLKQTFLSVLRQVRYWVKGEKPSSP
How it was run: as §1

[10] = biological target: hT2R71 (Homo sapiens (Human), UniProt P59536); assay: hT2R panel inhibition, transient HEK293 G16g44, agonist Picric Acid 10 μM; type: cell-based; settings: HEK293, compound at 25 μM; receptor activated to EC80 with the corresponding agonist; read-out: screening result against bitter receptor 71
hT2R71, sequence (P59536 whole entry): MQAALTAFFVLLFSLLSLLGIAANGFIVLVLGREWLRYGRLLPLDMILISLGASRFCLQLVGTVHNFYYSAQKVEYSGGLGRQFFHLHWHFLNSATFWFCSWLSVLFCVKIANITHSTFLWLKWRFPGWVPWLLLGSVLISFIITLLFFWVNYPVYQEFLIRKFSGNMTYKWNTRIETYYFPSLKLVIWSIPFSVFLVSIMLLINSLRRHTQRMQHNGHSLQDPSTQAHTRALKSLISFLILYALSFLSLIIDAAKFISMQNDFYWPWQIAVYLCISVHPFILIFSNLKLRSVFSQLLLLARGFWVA
How it was run: as §1

[11] = tested on: hT2R65; assay: hT2R panel inhibition, transient HEK293 G16g44, agonist Oleuropein 1 mM; type: cell-based, human; settings: compound at 25 μM; receptor activated to EC80 with the corresponding agonist
How it was run: as §1

[12] = tested on: hT2R63; assay: hT2R panel inhibition, transient HEK293 G16g44, agonist Caffeine 1 mM or Andrographolide 100 μM; type: cell-based, human; settings: compound at 25 μM; receptor activated to EC80 with the corresponding agonist
How it was run: as §1

[13] = biological target: hT2R5 (Homo sapiens (Human), UniProt Q9NYW4); assay: hT2R panel inhibition, transient HEK293 G16g44, agonist Picoline 10 mM; type: cell-based; settings: HEK293, compound at 25 μM; receptor activated to EC80 with the corresponding agonist; read-out: screening result against bitter receptor 5
hT2R5, sequence (Q9NYW4 whole entry): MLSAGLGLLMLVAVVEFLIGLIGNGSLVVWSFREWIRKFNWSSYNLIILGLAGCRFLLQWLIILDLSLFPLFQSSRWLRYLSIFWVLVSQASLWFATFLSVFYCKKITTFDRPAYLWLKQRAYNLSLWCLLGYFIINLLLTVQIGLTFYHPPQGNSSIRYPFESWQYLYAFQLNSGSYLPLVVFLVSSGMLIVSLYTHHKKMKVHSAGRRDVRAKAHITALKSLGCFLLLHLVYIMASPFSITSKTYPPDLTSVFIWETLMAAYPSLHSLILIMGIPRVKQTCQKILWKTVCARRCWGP
How it was run: as §1

[14] = biological target: hT2R13 (Homo sapiens (Human), UniProt Q9NYV9); assay: hT2R panel inhibition, transient HEK293 G16g44, agonist Oxyphenonium 1 mM; type: cell-based; settings: HEK293, compound at 25 μM; receptor activated to EC80 with the corresponding agonist; read-out: screening result against bitter receptor 13
hT2R13, sequence (Q9NYV9 whole entry): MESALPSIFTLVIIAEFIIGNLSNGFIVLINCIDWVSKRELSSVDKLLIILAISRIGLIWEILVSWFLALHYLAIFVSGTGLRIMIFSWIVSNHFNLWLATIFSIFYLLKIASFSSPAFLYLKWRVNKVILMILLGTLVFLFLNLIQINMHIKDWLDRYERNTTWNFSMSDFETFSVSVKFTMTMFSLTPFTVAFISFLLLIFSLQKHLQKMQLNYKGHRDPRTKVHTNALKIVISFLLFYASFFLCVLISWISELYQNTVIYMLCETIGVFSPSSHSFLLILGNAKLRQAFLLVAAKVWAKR
Experimental: Specifically, in order to evaluate the inhibitory selectivity of the Compound C compound, this compound was tested against 22 human T2Rs which were deorphaned by Senomyx. These receptors and the bitter ligands that activate these human T2Rs are reported in earlier patent applications which are incorporated by reference herein. These 22 human T2Rs are hT2R1, 3, 4, 5, 7, 8, 9, 10, 13, 14, 16, 44, 51, 54, 55, 61, 63, 64, 65, 67, 71 and 75. The amino acid and nucleic acid sequences of all of these T2Rs may be found in these earlier patent applications. These human T2Rs were each individually transiently transfected into HEK293 cells that stably express the promiscuous G protein G16g44 and functional assays were effected using these receptors as disclosed in these same patent applications. […] The ligands were used at EC80 concentration levels. The list of bitter ligands utilized and the tested ligand concentrations are contained in Table 5 of this example.
Relating to the foregoing, FIG. 5 contains experimental results wherein Compound C was tested with different agonist compounds. The inhibition activity is represented by the reduction of receptor activity in the presence of Compound C. […] These 13 hT2Rs are hT2R3, 7, 10, 14, 16, 44, 51, 55, 61, 63, 64, 65, and 71.

[15] = tested on: hT2R44; assay: hT2R panel inhibition, transient HEK293 G16g44, agonist Denatonium 0.5 μM; type: cell-based, human; settings: compound at 25 μM; receptor activated to EC80 with the corresponding agonist
How it was run: as §1

[16] = biological target: T1, hT2R14 (Homo sapiens (Human), UniProt Q9NYV8); assay: hT2R panel inhibition, transient HEK293 G16g44, agonist Aristolochic Acid 2 μM; type: cell-based; settings: HEK293, compound at 25 μM; receptor activated to EC80 with the corresponding agonist; read-out: screening result against bitter receptor 14
T1 sequence (Q9NYV8 whole entry): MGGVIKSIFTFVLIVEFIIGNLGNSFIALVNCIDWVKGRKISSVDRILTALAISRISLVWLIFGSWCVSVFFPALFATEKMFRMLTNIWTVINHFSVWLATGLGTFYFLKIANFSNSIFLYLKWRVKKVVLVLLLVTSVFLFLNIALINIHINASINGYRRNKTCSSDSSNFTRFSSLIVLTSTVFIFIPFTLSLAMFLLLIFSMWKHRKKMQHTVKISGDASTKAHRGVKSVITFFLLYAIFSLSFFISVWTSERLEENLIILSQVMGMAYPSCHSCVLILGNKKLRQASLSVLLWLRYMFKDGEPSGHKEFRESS
How it was run: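 Each hT2R was transiently transfected into HEK293 cells stably expressing G16g44 and assayed functionally for inhibition of agonist response. Agonists were applied at EC80: andrographolide at 0.5 mM for hT2R8 and aristolochic acid at 2 μM for hT2R14.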

[17] = tested on: hT2R54; assay: hT2R panel inhibition, transient HEK293 G16g44, agonist Ranitidine 5 mM; type: cell-based, human; settings: compound at 25 μM; receptor activated to EC80 with the corresponding agonist
How it was run: as §1

[18] = biological target: hT2R7 (Homo sapiens (Human), UniProt Q9NYW3); assay: hT2R panel inhibition, transient HEK293 G16g44, agonist Chloroquine pH6.5 10 mM; type: cell-based; settings: HEK293, compound at 25 μM; receptor activated to EC80 with the corresponding agonist; read-out: screening result against bitter receptor 7
hT2R7, sequence (Q9NYW3 whole entry): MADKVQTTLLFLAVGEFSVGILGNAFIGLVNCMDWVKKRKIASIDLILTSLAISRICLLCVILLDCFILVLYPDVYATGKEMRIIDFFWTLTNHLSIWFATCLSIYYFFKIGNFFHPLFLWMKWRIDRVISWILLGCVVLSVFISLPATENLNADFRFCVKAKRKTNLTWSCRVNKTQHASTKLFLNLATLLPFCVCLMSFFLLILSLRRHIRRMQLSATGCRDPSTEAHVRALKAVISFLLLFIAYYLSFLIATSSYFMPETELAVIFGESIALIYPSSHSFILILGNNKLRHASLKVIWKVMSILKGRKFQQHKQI
How it was run: as §1

[19] = biological target: T1, hT2R14; assay: hT2R14 antagonist high-throughput FLIPR assay, stable cell line with G16g44, agonist aristolochic acid; type: cell-based; settings: read-out: IC50 on hT2R14 bitter receptor
How it was run: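 HEK293 cells stably expressing hT2R14 with chimeric G16g44 were stimulated with aristolochic acid (3 μM), giving 70-80% of maximal receptor activity. Test compounds were added together with the agonist, and antagonism was read as fluorescent calcium signal on FLIPR.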

[20] = biological target: hT2R4 (Homo sapiens (Human), UniProt Q9NYW5); assay: hT2R panel inhibition, transient HEK293 G16g44, agonist Chloroquine pH6.5 5 mM; type: cell-based; settings: HEK293, compound at 25 μM; receptor activated to EC80 with the corresponding agonist; class symbols; read-out: screening result against bitter receptor 4
hT2R4, sequence (Q9NYW5 whole entry): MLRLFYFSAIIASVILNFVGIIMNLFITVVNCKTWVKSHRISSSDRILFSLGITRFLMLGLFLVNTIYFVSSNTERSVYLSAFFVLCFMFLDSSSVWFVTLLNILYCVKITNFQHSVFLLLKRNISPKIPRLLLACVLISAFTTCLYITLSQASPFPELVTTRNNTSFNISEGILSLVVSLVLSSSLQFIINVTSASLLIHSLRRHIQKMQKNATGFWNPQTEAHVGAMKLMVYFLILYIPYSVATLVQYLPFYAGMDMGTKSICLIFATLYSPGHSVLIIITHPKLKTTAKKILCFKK
How it was run: as §1

For `COc1ccc(CN(Cc2ccoc2)S(=O)(=O)c2ccc(C(=O)O)cc2)cc1` [Example 5-27, 4-(N-(furan-3-ylmethyl)-N-(4-methoxybenzyl)sulfamoyl)benzoic acid], which “screening result against bitter receptor 67” value [1] is on record?
Its value is “++ (40% to 60% inhibition = ++)”.

What about the inhibition at 25 µM [2] of the same molecule?
The inhibition at 25 µM was 60 to 80%.

And the inhibition at 25 µM [3]?
The inhibition at 25 µM was 20 to 40%.

And the “screening result against bitter receptor 55” value [4]?
Its value is “++++ (80% or greater inhibition = ++++)”.

And the inhibition at 25 µM [5]?
Its inhibition at 25 µM is 40 to 60%.

And the inhibition at 25 µM [6]?
The inhibition at 25 µM was over 80%.

And the inhibition at 25 µM [7]?
The inhibition at 25 µM was 40 to 60%.

And the inhibition at 25 µM [8]?
Its inhibition at 25 µM is 20 to 40%.

What about the inhibition at 25 µM [9] of the same molecule?
Its inhibition at 25 µM is 60 to 80%.

What about the inhibition at 25 µM [10] of the same molecule?
Its inhibition at 25 µM is 60 to 80%.

And the “screening result against bitter receptor 65” value [11]?
The value was “++ (40% to 60% inhibition = ++)”.

And the “screening result against bitter receptor 63” value [12]?
The value was “+++ (60% to 80% inhibition = +++)”.

And the inhibition at 25 µM [13]?
The inhibition at 25 µM was 40 to 60%.

And the inhibition at 25 µM [14]?
Its inhibition at 25 µM is 20 to 40%.

And the “screening result against bitter receptor 44” value [15]?
Its value is “+++ (60% to 80% inhibition = +++)”.

What about the inhibition at 25 µM [16] of the same molecule?
The inhibition at 25 µM was over 80%.

What about the “screening result against bitter receptor 54” value [17] of the same molecule?
Its value is “++ (40% to 60% inhibition = ++)”.

What about the inhibition at 25 µM [18] of the same molecule?
The inhibition at 25 µM was 20 to 40%.

Which results are given for `O=C(O)c1ccc(S(=O)(=O)N(Cc2ccccc2)Cc2ccco2)cc1` [Example 5-5, 4-(N-benzyl-N-(furan-2-ylmethyl)sulfamoyl)benzoic acid]?
screening result against bitter receptor 67 [1]: + (20% to 40% inhibition = +); inhibition at 25 µM [2]: 20 to 40%; inhibition at 25 µM [3]: 20 to 40%; screening result against bitter receptor 55 [4]: ++++ (80% or greater inhibition = ++++); inhibition at 25 µM [5]: 20 to 40%; inhibition at 25 µM [6]: > 80%; inhibition at 25 µM [7]: 40 to 60%; inhibition at 25 µM [8]: 40 to 60%; inhibition at 25 µM [9]: 60 to 80%; inhibition at 25 µM [10]: 60 to 80%; screening result against bitter receptor 65 [11]: + (20% to 40% inhibition = +); screening result against bitter receptor 63 [12]: ++++ (80% or greater inhibition = ++++); inhibition at 25 µM [13]: 20 to 40%; inhibition at 25 µM [14]: 20 to 40%; screening result against bitter receptor 44 [15]: ++ (40% to 60% inhibition = ++); inhibition at 25 µM [16]: > 80%; screening result against bitter receptor 54 [17]: + (20% to 40% inhibition = +); IC50 [19]: 4.6 µM; inhibition at 25 µM [18]: 40 to 60%

`COc1ccc(CN(C2CCCc3ccccc32)S(=O)(=O)c2ccc(C(=O)O)cc2)cc1` (stereo not drawn) [Example 5-96, 4-(N-(4-methoxybenzyl)-N-(1,2,3,4-tetrahydronaphthalen-1-yl)sulfamoyl)benzoic acid] was tested. Which “screening result against bitter receptor 67” value [1] did it give?
Its value is “+ (20% to 40% inhibition = +)”.

What about the “screening result against bitter receptor 55” value [4] of the same molecule?
The value was “++++ (80% or greater inhibition = ++++)”.

What about the inhibition at 25 µM [6] of the same molecule?
The inhibition at 25 µM was over 80%.

What about the inhibition at 25 µM [7] of the same molecule?
Its inhibition at 25 µM is 20 to 40%.

What about the inhibition at 25 µM [8] of the same molecule?
Its inhibition at 25 µM is 20 to 40%.

What about the inhibition at 25 µM [9] of the same molecule?
The inhibition at 25 µM was 60 to 80%.

What about the inhibition at 25 µM [10] of the same molecule?
Its inhibition at 25 µM is 40 to 60%.

And the inhibition at 25 µM [20]?
Its inhibition at 25 µM is 20 to 40%.

What about the “screening result against bitter receptor 65” value [11] of the same molecule?
The value was “++++ (80% or greater inhibition = ++++)”.

And the “screening result against bitter receptor 63” value [12]?
Its value is “++++ (80% or greater inhibition = ++++)”.

And the inhibition at 25 µM [14]?
The inhibition at 25 µM was 20 to 40%.

What about the “screening result against bitter receptor 44” value [15] of the same molecule?
The value was “+++ (60% to 80% inhibition = +++)”.

What about the inhibition at 25 µM [16] of the same molecule?
The inhibition at 25 µM was over 80%.

What does the source list for `CCc1ccc(CN(Cc2ccccc2)S(=O)(=O)c2ccc(C(=O)O)cc2)cc1` [Example 5-85, 4-(N-benzyl-N-(4-ethylbenzyl)sulfamoyl)benzoic acid]?
screening result against bitter receptor 67 [1]: ++ (40% to 60% inhibition = ++); inhibition at 25 µM [2]: 40 to 60%; inhibition at 25 µM [3]: 20 to 40%; screening result against bitter receptor 55 [4]: +++ (60% to 80% inhibition = +++); inhibition at 25 µM [5]: 20 to 40%; inhibition at 25 µM [6]: > 80%; inhibition at 25 µM [7]: 40 to 60%; inhibition at 25 µM [8]: 40 to 60%; inhibition at 25 µM [10]: 20 to 40%; screening result against bitter receptor 65 [11]: +++ (60% to 80% inhibition = +++); screening result against bitter receptor 63 [12]: +++ (60% to 80% inhibition = +++); inhibition at 25 µM [13]: 20 to 40%; inhibition at 25 µM [14]: 20 to 40%; inhibition at 25 µM [16]: > 80%; screening result against bitter receptor 54 [17]: +++ (60% to 80% inhibition = +++); inhibition at 25 µM [18]: 20 to 40%
